These are literature values, as cited in PubChem BioAssay AID1259410 (Chemical Carcinogenesis Research Information System (CCRIS), 2018).

In the series the test system is rodent tumor promotion studies, tumor incidence. Description: CCRIS tumor promotion studies. As to conditions: Route [Carcinogen]: DERMAL, Route [Promoter]: DERMAL, Species: MOUSE.

Molecules are shown by their SMILES.

`CCCCCCCCCCCCCC(=O)O[C@@H]1[C@@H](C)[C@@]2(O)[C@@H](C=C(CO)C[C@]3(O)C(=O)C(C)=C[C@@H]23)[C@@H]2C(C)(C)[C@]12OC(C)=O`: the outcome (Carcinogen: DIBENZO[A,L]PYRENE, 191-30-0, Doses [Carcinogen]: 0.25, 1 NMOL IN 100 µL ACETONE, Doses [Promoter]: 2.16 NMOL IN 100 µL ACETONE 2/WK FOR 27 WK BEGINNING 1 WK POST CARCINOGEN DOSE (STUDY DURATION: 28 WK), Strain/Sex: SENCAR/FEMALE) is listed as “skin: tumor”; the outcome (Carcinogen: DIBENZO[A,L]PYRENE, 191-30-0, Doses [Carcinogen]: 1.33, 4, 12 NMOL IN 100 ML ACETONE ONCE, Doses [Carcinogen]: 1.33, 4, 12 NMOL IN 100 ML ACETONE ONCE, Doses [Promoter]: 1.62 NMOL IN 100 ML ACETONE 2/WK FOR 28 WK BEGINNING 1 WK POST CARCINOGEN DOSE (STUDY DURATION: 30 WK), Strain/Sex: SENCAR/FEMALE) was “skin: tumor”; the outcome (Carcinogen: DIBENZO[A,L]PYRENE, 191-30-0, Doses [Carcinogen]: 4, 20, 100 NMOL IN 100 µL ACETONE ONCE, Doses [Carcinogen]: 4, 20, 100 NMOL IN 100 µL ACETONE ONCE, Doses [Promoter]: 3.24 NMOL/100 µL ACETONE 2/WK BEGINNING 2 WK POST CARCINOGEN DOSE AND CONTINUING FOR 24 WK (STUDY DURATION: 27 WK), Strain/Sex: SENCAR/FEMALE) is given as “skin: tumor”; the outcome (Carcinogen: DIBENZO[A,L]PYRENE, 191-30-0, Doses [Carcinogen]: 33.3, 100, 300 NMOL IN 100 µL ACETONE ONCE, Doses [Carcinogen]: 33.3, 100, 300 NMOL IN 100 µL ACETONE ONCE, Doses [Promoter]: 3.24 NMOL/100 µL ACETONE ONCE 1 WK POST CARCINOGEN DOSE THEN 2/WK BEGINNING 3 WK LATER AND CONTINUING FOR 11 WK (STUDY D, Strain/Sex: SENCAR/FEMALE) is reported as “skin: tumor”; the outcome (Carcinogen: DIMETHYLBENZ[A]ANTHRACENE, 57-97-6, Doses [Carcinogen]: 0.2 UMOL IN O.2 ML ACETONE ONCE, Doses [Promoter]: 0, 5 UG IN 0.2 ML ACETONE 3/WK ADMINISTERED 7 D POST CARCINOGEN DOSE AND CONTINUING FOR DURATION OF STUDY (STUDY DURATIO, Strain/Sex: SWISS/FEMALE) is recorded as “skin: tumor, squamous cell papilloma, keratoacanthoma”; the outcome (Carcinogen: N-METHYL-N'-NITRO-N-NITROSOGUANIDINE, 70-25-7, Doses [Carcinogen]: 4 UMOL IN 200 µL ACETONE ONCE, Doses [Promoter]: 0, 10 NMOL IN 200 µL ACETONE 2/WK FOR 52 WK BEGINNING 2 WK POST CARCINOGEN DOSE (STUDY DURATION: 52 WK), Strain/Sex: C3H/CB/S/GEN/FEMALE) is “skin: tumor”. For the same compound, the outcome (Carcinogen: N-METHYL-N'-NITRO-N-NITROSOGUANIDINE; 70-25-7; Doses [Carcinogen]: 4 UMOL IN 200 µL ACETONE ONCE; Doses [Promoter]: 0; 10 NMOL IN 200 µL ACETONE 2/WK FOR 52 WK BEGINNING 2 WK POST CARCINOGEN DOSE STUDY DURATION: 52 WK), Strain/Sex: C3H/FEMALE) is “skin: tumor”; the outcome (Carcinogen: PHENOXYOXIRANE, 79526-11-7, Doses [Carcinogen]: 5 UMOL IN 0.2 ML 15% DMSO IN ACETONE ONCE, Doses [Promoter]: 0, 15 NMOL IN 0.1 ML ACETONE ONCE 18-24 HR PRIOR TO CARCINOGEN DOSE THEN BEGINNING 1 WK LATER 2/WK FOR DURATION OF STUDY, Strain/Sex: ICR/FEMALE) is “skin: papilloma”; the outcome (Carcinogen: PHENYL VINYL ETHER, 766-94-9, Doses [Carcinogen]: 5 UMOL IN 0.2 ML 15% DMSO IN ACETONE ONCE, Doses [Promoter]: 0, 15 NMOL IN 0.1 ML ACETONE ONCE 18-24 HR PRIOR TO CARCINOGEN DOSE THEN BEGINNING 1 WK LATER 2/WK FOR DURATION OF STUDY, Strain/Sex: ICR/FEMALE) is “skin: papilloma”; the outcome (Carcinogen: SYN-1,2-DIHYDROXY-3,4-EPOXY-1,2,3,4-TETRAHYDRO-5,6-DIMETHYLCHRYSENE, 139562-15-5, Doses [Carcinogen]: 100 NMOL IN 0.1 ML ACETONE ONCE, Doses [Promoter]: 0, 2.5 UG IN 0.1 ML ACETONE 3/WK FOR 20 WK BEGINNING 10 D POST CARCINOGEN DOSE (STUDY DURATION: 20 WK), Strain/Sex: CD-1/FEMALE) was “skin: tumor”; the outcome (Carcinogen: THIRAM, 137-26-8, Doses [Carcinogen]: 100 MG/KG BW 3/WK FOR 3 WK, Doses [Promoter]: 0, 5 UG IN 100 µL ACETONE 3/WK FOR 51 WK BEGINNING 1 WK POST CARCINOGEN TREATMENT (STUDY DURATION: 54 WK), Strain/Sex: SWISS/FEMALE) was “skin: tumor”; the outcome (Carcinogen: THIRAM, 137-26-8, Doses [Carcinogen]: 100 MG/KG BW IN 100 µL DMSO ONCE, Doses [Promoter]: 5 UG IN 100 µL ACETONE 3/WK BEGINNING 1 WK POST CARCINOGEN DOSE (STUDY DURATION: 52 WK), Strain/Sex: SWISS/MALE) is “skin: tumor”. Besides, the outcome (Carcinogen: THIRAM, 137-26-8, Doses [Carcinogen]: 100 MG/KG BW IN 100 µL DMSO ONCE, Doses [Promoter]: 5 UG IN 100 µL ACETONE 3/WK FOR 3 WK BEGINNING 1 WK POST CARCINOGEN DOSE (STUDY DURATION: 52 WK), Strain/Sex: SWISS/FEMALE) is reported as “skin: tumor”.
